Reference: the supplement of paper PMC10307832

How the values were obtained:
Assay in all cases: relative viability (nuclei count vs DMSO), 5 days (fraction); higher = more cells survive
Cediranib + Lapatinib = compound: COc1cc2c(Oc3ccc4[nH]c(C)cc4c3F)ncnc2cc1OCCCN1CCCC1 [Cediranib] + CS(=O)(=O)CCNCc1ccc(-c2ccc3ncnc(Nc4ccc(OCc5cccc(F)c5)c(Cl)c4)c3c2)o1 [Lapatinib] (partner 2 µM)
In short: (§1)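 Lung cancer cell lines, seeded in 1536-well plates, were treated the following day by pin tool with a single drug or with five library-drug doses (not always all listed) in √10 steps on top of a fixed anchor-drug dose. Cells were fixed and nuclei stained in one step after 5 days, and nuclei were counted. Relative viability is the nuclei count for treated wells divided by that for vehicle wells, reported as medians of duplicate plates.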

Cediranib + Crizotinib = compound: COc1cc2c(Oc3ccc4[nH]c(C)cc4c3F)ncnc2cc1OCCCN1CCCC1 [Cediranib] + C[C@@H](Oc1cc(-c2cnn(C3CCNCC3)c2)cnc1N)c1c(Cl)ccc(F)c1Cl [Crizotinib] (partner 1 µM)
In short: as §1

Halofuginone + Foretinib = compound: O=C(C[C@H]1NCCC[C@@H]1O)Cn1cnc2cc(Br)c(Cl)cc2c1=O (racemic) [Halofuginone] + COc1cc2c(Oc3ccc(NC(=O)C4(C(=O)Nc5ccc(F)cc5)CC4)cc3F)ccnc2cc1OCCCN1CCOCC1 [Foretinib] (partner 0.25 µM)
In short: as §1

Halofuginone + Alpelisib = compound: O=C(C[C@H]1NCCC[C@@H]1O)Cn1cnc2cc(Br)c(Cl)cc2c1=O (racemic) [Halofuginone] + Cc1nc(NC(=O)N2CCC[C@H]2C(N)=O)sc1-c1ccnc(C(C)(C)C(F)(F)F)c1 [Alpelisib] (partner 2 µM)
In short: as §1

Cell Line | relative viability (Cediranib + Lapatinib; first compound 0.04 µM) | relative viability (Cediranib + Lapatinib; first compound 0.1265 µM) | relative viability (Cediranib + Lapatinib; first compound 0.4 µM) | relative viability (Cediranib + Lapatinib; first compound 1.265 µM) | relative viability (Cediranib + Lapatinib; first compound 4 µM) | relative viability (Cediranib + Crizotinib; first compound 0.04 µM) | relative viability (Cediranib + Crizotinib; first compound 0.1265 µM) | relative viability (Cediranib + Crizotinib; first compound 0.4 µM) | relative viability (Cediranib + Crizotinib; first compound 1.265 µM) | relative viability (Cediranib + Crizotinib; first compound 4 µM) | relative viability (Halofuginone + Foretinib; first compound 0.001 µM) | relative viability (Halofuginone + Foretinib; first compound 0.003162 µM) | relative viability (Halofuginone + Foretinib; first compound 0.01 µM) | relative viability (Halofuginone + Foretinib; first compound 0.03162 µM) | relative viability (Halofuginone + Foretinib; first compound 0.1 µM) | relative viability (Halofuginone + Alpelisib; first compound 0.001 µM) | relative viability (Halofuginone + Alpelisib; first compound 0.003162 µM) | relative viability (Halofuginone + Alpelisib; first compound 0.01 µM) | relative viability (Halofuginone + Alpelisib; first compound 0.03162 µM) | relative viability (Halofuginone + Alpelisib; first compound 0.1 µM)
201T | 1.08 | 0.897 | 1.02 | 1.01 | 0.996 | 1.05 | 1.18 | 0.989 | 1.01 | 1.01 | 1.09 | 1.09 | 0.931 | 0.558 | 0.193 | 1.04 | 1.01 | 1.01 | 0.998 | 0.841
A549 | 0.927 | 1.01 | 0.949 | 0.994 | 0.992 | 0.805 | 0.768 | 0.679 | 0.773 | 0.605 | 1.06 | 0.921 | 0.925 | 0.507 | 0.112 | 0.919 | 0.765 | 0.685 | 0.44 | 0.15
A-427 | 1.03 | – | 0.938 | 0.897 | 0.981 | 0.946 | – | 0.829 | 0.866 | 0.884 | 0.979 | 1.03 | 1.02 | 1.06 | 0.915 | 1.07 | 1.14 | 1.05 | 0.978 | 0.94
ABC-1 | 1.24 | 1.39 | 1.14 | 1.06 | 1.24 | 1.39 | 1.17 | 1.34 | – | 0.999 | 1.28 | 1.38 | 1.07 | 1.13 | 0.9 | 1.2 | 0.936 | 1 | 0.947 | 1.03
BEN | 0.945 | – | 0.665 | 0.598 | 0.681 | 1.19 | 0.662 | 0.971 | 0.824 | 0.816 | 0.71 | 0.815 | 0.889 | 0.646 | 0.242 | 0.974 | 1.12 | 1.1 | 0.975 | 0.478
CAL-12T | 0.681 | – | 0.614 | 0.676 | 0.877 | 0.855 | 0.639 | 0.661 | 0.638 | 0.62 | 1.33 | 1.21 | 1.08 | 1.41 | 0.898 | 1.4 | 1.16 | 1.03 | 1.11 | 1.02
COR-L23 | 1.1 | 0.899 | 0.895 | 0.892 | 1.32 | 0.696 | 0.749 | 0.654 | 0.703 | 0.68 | 1 | 0.996 | 1.02 | 0.904 | 0.353 | 0.808 | 0.823 | 0.754 | 0.635 | 0.118
COR-L 105 | – | 0.304 | 0.361 | 0.339 | 0.337 | – | 0.842 | 0.832 | 0.716 | 0.695 | 1.07 | 0.894 | 1.31 | 1.09 | 0.846 | 1.31 | 0.934 | 0.857 | 0.831 | 0.629
Calu-6 | 1.17 | 1.08 | 0.874 | 1.03 | 1.14 | 0.844 | 0.849 | 0.81 | 0.786 | 0.602 | 0.961 | 0.95 | 0.925 | 0.472 | 0.109 | 1.16 | 1.01 | 0.94 | 0.362 | 0.17
ChaGo-K-1 | – | – | – | – | – | 1.08 | – | 1.08 | 1.14 | 0.874 | 0.999 | 0.915 | 0.93 | 0.881 | 0.786 | – | – | – | – | –
EBC-1 | 0.252 | 0.206 | 0.213 | 0.226 | 0.202 | 0.17 | 0.213 | 0.21 | 0.201 | 0.172 | 0.106 | 0.112 | 0.108 | 0.104 | 0.104 | 0.939 | 0.779 | 0.666 | 0.441 | 0.181
EKVX | 0.19 | 0.23 | 0.196 | 0.227 | 0.203 | 0.933 | 0.92 | 0.936 | 0.895 | 0.975 | 0.806 | 0.794 | 0.947 | 0.794 | 0.293 | 1.01 | 0.922 | 0.862 | 0.859 | 0.638
EMC-BAC-2 | 0.925 | 0.804 | 0.88 | 0.816 | 0.868 | 0.782 | 0.703 | 0.754 | 0.785 | 0.853 | 1.06 | 0.972 | 0.986 | 0.78 | 0.423 | 0.765 | 0.761 | 0.766 | 0.723 | 0.517
EPLC-272H | 0.834 | – | 0.862 | 0.77 | 0.671 | 0.735 | – | 0.945 | 1.04 | 0.906 | 0.792 | 0.742 | 0.736 | 0.78 | 0.72 | 1.04 | 0.893 | 0.866 | 1.02 | 0.798
